Results: patent US20110172171A1, “TAURINE OR TAURINE-LIKE SUBSTANCES FOR THE PREVENTION OF BRAIN OEDEMA” (priority 2008, published 2011)
Where “and” joins values, the source holds several entries; their conditions need not be identical. Equal entries are not always repeated. Entries after “also recorded” stand apart in the source; their conditions may differ.

Test system: white matter adjacent to the cerebellar nuclei, and the nuclei
Assay: Vigabatrin-induced brain vacuolation in rats, histology of cerebellar sections scored by light microscopy
Assay type: in vivo, Wistar rats
Set-up: key to vacuolation score (grade) of cerebellum: 1: No or occasional individual vacuoles in perinuclear white matter.; 2: Mild to moderate regional vacuolation of perinuclear white matter, sometimes extending into nucleus.; 3: Extensive, widespread vacuolation of perinuclear white matter, often with involvement of adjacent nuclear regions. Vacuolation may extend to folial white matter
Settings: for vacuolation score (grade) of cerebellum: blinded scoring; for vacuolation in the brain tissue (histological appearance): cerebellar sections
Protocol: Animal treatments: As described previously (Duboc A. et al. 2004; Izumi Y. et al. 2004), Wistar rats Rj Wi IOPS Han were purchased from Janvier (Le Genest-St-Isle, France) at between six and seven weeks of age. vigabatrin dissolved in 0.9% NaC1 was administered at 40mg (125 mg/ml, 0.32m1) to rats by daily intraperitoneal injection for 65 days. These daily doses (rats: 200mg/kg) are in-line with those described for the treatment of epilepsy (adult patients: […]; children: 50-75mg/kg; or infants: 100-150 mg/kg) (Chiron C. et al. 1997; Lux AL. et al. 2004; Aicardi J. et al. 1996). Taurine supplementation was given in drinking water at a concentration of 0.1M.
Histology: Rats were anesthetized by intraperitoneal injection (0.8 to 1.2 ml/kg) of a solution containing ketamine (40 mg/ml) and xylazine (4 mg/ml Rompum). Rat heads were removed and an opening created in the calvarium. These were then immersion fixed in 4% buffered formol (T/02170015, MMFrance) and then placed in phosphate buffered saline. Brains were then removed from the skulls and placed in 10% neutral buffered formalin. Brains were trimmed and their cerebellar nuclei placed in 10% buffered formalin and embedded in paraffin. Sections of the cerebellar nuclei were stained with hematoxylin and eosin.
Vacuolation of cerebellum was assessed by light microscopy, with the region of emphasis being the white matter adjacent to the cerebellar nuclei, and the nuclei. Vacuolation was scored as follows.
1- No or occasional individual vacuoles in perinuclear white matter.
2- Mild to moderate regional vacuolation of perinuclear white matter, sometimes extending into nucleus.
3- Extensive, widespread vacuolation of perinuclear white matter, often with involvement of adjacent nuclear regions. Vacuolation may extend to folial white matter

Row | vacuolation score (grade) of cerebellum (rats, vigabatrin 40 mg (200mg/kg) daily intraperitoneal injection for 65 days, n=7) | SMILES | vacuolation score (grade) of cerebellum (vigabatrin-treated rats (200mg/kg daily i.p., 65 days) with taurine 0.1M in drinking water, n=7 (grade 1 n=3, grade 2 n=4), 200 mg/kg) | vacuolation in the brain tissue (histological appearance) (vigabatrin-treated rats supplemented with taurine (0.1M in drinking water), FIG. 1C) | vacuolation in the brain tissue (histological appearance) (vigabatrin-treated rats, FIG. 1B)
1 |  | NCCS(=O)(=O)O [taurine, 2-aminoethanesulfonic acid] | 1 and 2 | mild and vacuoles were present in some animals but appeared at a much lower density | 
2 | 3 | C=CC(N)CCC(=O)O (stereo not shown) [vigabatrin, 4-amino-5-hexenoic acid, reference compound] |  |  | extensive; also recorded: a great number of vacuoles
